The term IC50 denotes the concentration needed to halve the response being measured. A low value points to greater potency. The MIC is the least concentration at which growth counts as inhibited.

In one assay the target is T1, IMP-1 (Serratia marcescens, UniProt P52699).
T1 construct: purchased GenScript Biotech Co., Ltd
Nature of the assay: Enzyme activity test (FC5 fluorescent substrate), IMP-1. Format: biochemical. Particulars: enzyme 20 pM, substrate FC5 15 μM. The protocol:
(§1) Compound stock solution: the compound was prepared as a 50 mM DMSO stock solution. […] After aliquoting, the compound stock solutions were stored at −20° C.
(§2) Preparation and storage of antibiotic substrate stock solution: antibiotic fluorescent substrate FC5 was synthesized internally and prepared as a 2 mM stock solution, which was stored at −20° C. after aliquoting.
(§3) Storage of β-lactamases: each […] was synthesized by GenScript Biotech Co., Ltd., and stored at −80° C. after aliquoting to avoid repeated freezing and thawing.
(§4) Preparation of enzyme activity reaction buffer: SBL buffer: PBS pH 7.4, 0.01% (v/v) Triton X-100; MBL buffer: 50 Mm HEPES in PBS pH 7.2, 1 μM ZnSO4, 1 μg/mL BSA, 0.010% v/v Triton X-100
(§5) a) The compound to be tested and buffer were taken out and warmed to room temperature.
(§6) b) Each compound was diluted with DMSO and buffer to the initial experimental concentration (Table 2), and then the compound was diluted 3-fold for a total of 10 concentrations.
(§7) c) Diluted compounds were added to wells 1 to 20 of a 384-well black plate at 2 replicate wells per concentration, 5 μL per well. 5 µL of DMSO was added to wells 21 to 24.
(§8) d) Each enzyme was diluted to the experimental concentration (Table 2) in SBL and MBL buffers, and finally 35 μL/well was added, with a total of 22 wells. 35 μL buffer was added to wells 23 to 24. Wells 21 to well 22 served as the maximum test values (Max), while wells 23 to 24 were designated as the minimum test values (Min).
(§9) e) The 384-well plate was centrifuged quickly and incubated for 10 minutes at room temperature.
(§10) f) The antibiotic substrate FC5 was diluted in buffer to the experimental concentration of each enzyme (Table 2).
(§11) g) The incubated 384-well plate was taken out and FC-5 was added to wells […]. The 384-well plate was centrifuged rapidly and promptly transferred to a microplate reader for reading.
(§12) h) The fluorescence intensity was measured at 355 nm excitation light/460 nm emission light in the microplate reader, and the fluorescence intensity was measured every three minutes for a total of 10 measurements.
(§13) Initial velocity of enzyme reaction V: Subtract the background reading (Min wells) without enzyme from each fluorescence intensity reading, and then perform on a linear regression analysis on each compound concentration group. The slope is the initial velocity of enzyme reaction (V) at each compound concentration.
(§14) Dose-effect curve and IC50 calculation of compounds: The initial velocity of enzyme reaction under the effect of each concentration of compounds was subjected to nonlinear regression fitting. The IC50 (half-maximal inhibitory concentration) of each compound was calculated using the formula […] (Vi: the initial velocity of enzyme reaction at each compound concentration; V0: initial velocity of enzyme reaction without the compound (Max wells). The software used was Graphpad prism 8.

For another assay, the target named is T2, VIM-1 (Pseudomonas aeruginosa, UniProt A0A0F7KYQ8).
T2 construct: purchased GenScript Biotech Co., Ltd
The experiment in a line: Enzyme activity test (FC5 fluorescent substrate), VIM-1. Format: biochemical. As to conditions: enzyme 70 pM, substrate FC5 10 μM. The protocol:
as §1, §2, §3, §4, §5, §6, §7, §8, §9, §10, §11, §12, §13, §14

The target of a further assay is T3, VIM-2 (Escherichia coli, UniProt Q5U7L7).
T3 construct: purchased GenScript Biotech Co., Ltd
Nature of the assay: Enzyme activity test (FC5 fluorescent substrate), VIM-2. Format: biochemical. As to conditions: enzyme 25 pM, substrate FC5 20 μM. The protocol: as §1, §2, §3, §4, §5, §6, §7, §8, §9, §10, §11, §12, §13, §14

For the next assay, the target named is T4, CTX-M-15 (Escherichia coli, UniProt Q9EXV5).
T4 construct: purchased GenScript Biotech Co., Ltd
T4 sequence (Q9EXV5 entry or part of it): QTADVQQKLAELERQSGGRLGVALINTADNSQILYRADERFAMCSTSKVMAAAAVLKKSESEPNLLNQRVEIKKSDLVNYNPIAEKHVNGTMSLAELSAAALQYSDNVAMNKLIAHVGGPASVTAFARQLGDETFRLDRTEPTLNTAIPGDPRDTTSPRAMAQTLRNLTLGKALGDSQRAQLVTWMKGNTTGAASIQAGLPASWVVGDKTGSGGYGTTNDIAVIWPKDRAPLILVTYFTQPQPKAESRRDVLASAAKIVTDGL
Nature of the assay: Enzyme activity test (FC5 fluorescent substrate), CTX-M-15. The assay is classed as biochemical. Particulars: enzyme 45 pM, substrate FC5 50 μM. As for the experimental part:
as §1, §2, §3, §4, §5, §6, §7, §8, §9, §10, §11, §12, §13, §14

In another assay the target is Ampc (UniProt P24735). Nature of the assay: Enzyme activity test (FC5 fluorescent substrate), AmpC. As to conditions: enzyme 25 pM, substrate FC5 15 μM. Format: biochemical. The protocol:
as §1, §2, §3, §4, §5, §6, §7, §8, §9, §10, §11, §12, §13, §14

Another assay concerns the target T5, OXA-10 (Pseudomonas aeruginosa, UniProt P14489).
T5 construct: purchased GenScript Biotech Co., Ltd
Nature of the assay: Enzyme activity test (FC5 fluorescent substrate), OXA-10. The assay is classed as biochemical. As to conditions: enzyme 350 pM, substrate FC5 50 μM. As for the experimental part: as §1, §2, §3, §4, §5, §6, §7, §8, §9, §10, §11, §12, §13, §14

For a further assay, the target named is T6, OXA-23 (Acinetobacter baumannii, UniProt Q9L4P2).
T6 construct: purchased GenScript Biotech Co., Ltd
T6 sequence (Q9L4P2 18-273): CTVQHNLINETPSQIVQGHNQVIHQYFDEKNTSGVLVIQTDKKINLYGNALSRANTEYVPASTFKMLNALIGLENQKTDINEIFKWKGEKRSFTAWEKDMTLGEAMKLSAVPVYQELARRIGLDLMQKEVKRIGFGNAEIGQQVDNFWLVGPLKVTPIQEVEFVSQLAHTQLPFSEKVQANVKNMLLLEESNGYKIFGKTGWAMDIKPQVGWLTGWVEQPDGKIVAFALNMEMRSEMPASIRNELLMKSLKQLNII
Nature of the assay: Enzyme activity test (FC5 fluorescent substrate), OXA-23. The assay is classed as biochemical. As to conditions: enzyme 650 pM, substrate FC5 50 μM. As for the experimental part: as §1, §2, §3, §4, §5, §6, §7, §8, §9, §10, §11, §12, §13, §14

Assay [1] relates to Escherichia coli ARLG 2829. The experiment in a line: MIC test of compounds in combination with antibiotics, Escherichia coli ARLG 2829. As to conditions: Escherichia coli ARLG-2829 NDM-5, OXA-1.
Procedure: Strain preparation: the strains to be tested were streaked from glycerol tube at −80° C. onto Mueller Hinton II Agar plates. The plates were then placed in a 37° C. incubator and cultured for 18-24 hours.
Media preparation: CAMHB (Mueller Hinton II Broth): 22 g of powder was dissolved in 1 L of purified water and sterilized at 121° C. for 10 min for use. Saline: 8.5 g NaCl was dissolved in 1 L of pure water and sterilized at 121° C. for 30 min for use.
Preparation of compound and antibiotic stock solutions: the compound and antibiotic were dissolved in DMSO or water to 12.8 mg/mL.
(§15) 2-Fold gradient dilution of antibiotics: 300 μL of CAMHVIB medium was added to columns 2-12 of a 96-deep well plate. In column 1, 24 μL of antibiotic stock solution and 576 µL of CAMHB medium were added and mixed well, with a concentration of 512 μg/mL. 300 µL of antibiotic solution was transferred from the column 1 to the second column and mixed well. The process was repeated until column 11, and the column 12 was a blank control.
(§16) Dilution of combined compounds: the compound was diluted 400-fold to 32 μg/ml with CAMHB medium.
(§17) Working solution aliquoting: 25 μL of antibiotics was aliquoted into the 96-U bottom plate with a pipette, and 25 μL of combined compound was added to each well. If antibiotics were used alone, 25 μL of CAMHB medium was added.
(§18) Inoculum solution preparation: 5-6 single colonies were selected from the plate and suspended in normal saline. The bacterial suspension was adjusted to 0.2 (i.e., 0.5 McFarland turbidity, with a bacterial concentration was about 1 to 2×10^8 CFU/mL) with a turbidity meter. The bacterial suspension was diluted 100-fold with CAMHB medium for later use.
(§19) Inoculation: 50 μL of inoculum solution was transferred to the above 50 μL compound plate with a pipette.
(§20) Culture: The 96-U bottom plate was placed in an incubator at 37° C. for 18 to 20 h.
After the incubation, bacterial growth was visually observed, and the test plate was photographed and recorded.
For assay [2], the system named is Klebsiella pneumoniae ARLG 1196. Nature of the assay: MIC test of compounds in combination with antibiotics, Klebsiella pneumoniae ARLG 1196. As to conditions: Klebsiella pneumoniae ARLG-1196 CTM-1 group, SHV, NDM, TEM.
The test system of assay [3] is Klebsiella pneumoniae ATCC BAA-2470. Nature of the assay: MIC test of compounds in combination with antibiotics, Klebsiella pneumoniae ATCC BAA-2470. As to conditions: Klebsiella pneumoniae ATCC BAA-2470 NDM-1.
The subject of assay [4] is Acinetobacter baumannii WX-AB005. Nature of the assay: MIC test of compounds in combination with antibiotics, Acinetobacter baumannii WX-AB005. Particulars: Acinetobacter baumannii WX-AB005.
Procedure: as §15, §16, §17, §18, §19, §20
Assay [5] concerns Acinetobacter baumannii ARLG-1791 OXA-23. Nature of the assay: MIC test of compounds in combination with antibiotics, Acinetobacter baumannii ARLG-1791. Particulars: Acinetobacter baumannii ARLG-1791 OXA-23.
Procedure: as §15, §16, §17, §18, §19, §20
Assay [6] has as its system Acinetobacter baumannii ARLG-1809 OXA-23. Nature of the assay: MIC test of compounds in combination with antibiotics, Acinetobacter baumannii ARLG-1809. As to conditions: Acinetobacter baumannii ARLG-1809 OXA-23.
Procedure: as §15, §16, §17, §18, §19, §20
The test system of assay [7] is Acinetobacter baumannii ARLG-1852 OXA-23. The experiment in a line: MIC test of compounds in combination with antibiotics, Acinetobacter baumannii ARLG-1852. Particulars: Acinetobacter baumannii ARLG-1852 OXA-23.
Procedure: as §15, §16, §17, §18, §19, §20
For assay [8], the system named is carbapenem-resistant Acinetobacter baumannii strains. Nature of the assay: MIC test of compounds in combination with antibiotics, resistant Acinetobacter baumannii strains. Particulars: all resistant strains of Acinetobacter baumannii.

T1 sequence (P52699 19-246 limits assumed): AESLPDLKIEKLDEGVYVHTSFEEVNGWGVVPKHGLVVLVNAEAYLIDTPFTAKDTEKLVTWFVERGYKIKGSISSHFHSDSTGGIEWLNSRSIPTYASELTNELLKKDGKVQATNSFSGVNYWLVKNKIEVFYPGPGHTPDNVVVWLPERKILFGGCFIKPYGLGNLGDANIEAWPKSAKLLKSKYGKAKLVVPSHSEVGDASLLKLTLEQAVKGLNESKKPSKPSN
T5 sequence (P14489 20-266): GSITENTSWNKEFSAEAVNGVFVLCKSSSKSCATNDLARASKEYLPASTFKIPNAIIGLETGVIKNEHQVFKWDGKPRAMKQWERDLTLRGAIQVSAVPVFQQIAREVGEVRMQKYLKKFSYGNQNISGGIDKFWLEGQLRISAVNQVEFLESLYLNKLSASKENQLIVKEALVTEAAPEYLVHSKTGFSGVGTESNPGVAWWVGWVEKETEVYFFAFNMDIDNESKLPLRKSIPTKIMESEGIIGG

Turning to `NCCNC1CCC(CC(=O)N[C@H]2Cc3cccc(C(=O)O)c3OB2O)CC1` (stereo partly shown) [VNRX-5133, reference compound], the IC50 was greater than 10000 nM against IMP-1; 33 nM on VIM-1; 4.4 nM against VIM-2; 12.4 nM at CTX-M-15; 857 nM at Ampc; 463 nM against OXA-10. The IC50 against OXA-23 was greater than 10000 nM. In addition, the MIC in assay [1] (Cefepime + compound (8 μg/mL)), in assay [1] (Meropenem + compound (8 μg/mL)), in assay [2] (Cefepime + compound (8 μg/mL)), in assay [2] (Meropenem + compound (8 μg/mL)), in assay [3] (Cefepime + compound (8 μg/mL)) and in assay [3] (Meropenem + compound (8 μg/mL)) was 1 µg/mL throughout. The MIC in assay [4] (Cefepime + compound (8 μg/mL)) worked out at 128 µg/mL; in assay [4] (Meropenem + compound (8 μg/mL)), 128 µg/mL; in assay [5] (Cefepime + compound (8 μg/mL)) it was 16 µg/mL; in [5] (Meropenem + compound (8 μg/mL)) it was 128 µg/mL; in [6] (Cefepime + compound (8 μg/mL)), 32 µg/mL; in [6] (Meropenem + compound (8 μg/mL)) it was 128 µg/mL. The figures for the MIC in assay [7] (Cefepime + compound (8 μg/mL)) and in [7] (Meropenem + compound (8 μg/mL)) were 32 µg/mL and 128 µg/mL, respectively. Also, the MIC of the combination with cefepime/meropenem in assay [8] was greater than 32 µg/mL.

The values above are taken from patent US20250223303A1, “TRICYCLIC BORONIC ACID DERIVATIVE, AND PREPARATION METHOD THEREFOR AND APPLICATION THEREOF” (priority 2021, published 2025).
